Measured values taken from EP0426314B1, “HIV related peptides” (VIRAL TECHNOLOGIES, INC., priority 1989, dated 1995).

Columns and labels:
[1] = system: sera from four Rhesus Monkeys given live HIV-1; assay: ELISA of sera from Rhesus monkeys given live HIV-1 for antibodies to p17 peptides (Figure 5); format: binding; conditions: result in words
Text: • Figure 1 is a schematic drawing illustrating the proposed orientation for the p17 gag protein of HIV; • Figure 2 is a chart depicting the primary amino acid sequences of HIV-1 p17 (strain HB10) and also of the p17 proteins of HIV-2 and SIV; • Figure 3 is another chart depicting the primary amino acid sequence of the peptides in p17; • Figure 4 is a graph plotting antibody titers of HIV p17 peptides in rabbits immunized with native HIV p17; and • Figure 5 is a bar graph illustrating the results of ELISA analysis of sera from 4 Rhesus monkeys exposed to live HIV antibodies to the p17 peptide fragments of this invention.
In another test, sera from four Rhesus Monkeys given live HIV-1 were also evaluated for antibodies to Peptides A, B, C, D and E and the results are shown in Figure 5. […] Sera from individuals who had been naturally exposed to the HIV virus and were seropositive for p17 were also evaluated.

[2] = system: antibodies of a rabbit immunized with native (intact) HIV p17; assay: Antibody titers to p17 peptides in a rabbit immunized with native HIV p17 (Figure 4); format: binding; conditions: rabbit immunized with HPLC-purified native HIV p17, synthetic peptide analogs, result in words

Substance	antibody response [1]	antibody titers [2]
Peptide A: p17 gag HIV protein fragment, positions 1-32, formula (II); sequence only in image I00003 (GARASVLSGGELDRWEKIRLRPGGKKKYKLKH; Matrix protein p17; UniProt P04591 2-33, looked up, fragment)	strong antibody response in at least one of the challenged monkeys	
Peptide B: p17 gag HIV protein fragment, positions 33-50, formula (III); sequence only in image I00004 (IVWASRELERFAVNPGLL; Matrix protein p17; UniProt P04591 34-51, looked up, fragment)	strong antibody response in at least one of the challenged monkeys	
Peptide C: p17 gag HIV protein fragment, positions 51-84, formula (IV); sequence only in image I00005 (ETSEGCRQILGQLQPSLQTGSEELRSLYNTVATL; Matrix protein p17; UniProt P04591 52-85, looked up, fragment)	strong antibody response in at least one of the challenged monkeys	highest titers
